From ChEMBL document CHEMBL1201862, “PubChem BioAssay data set” (2004)
Active and inactive are the calls of the source.

Experiments:
Cytochrome P450 3A4 = Cytochrome P450 3A4 (Homo sapiens, UniProt P08684); details: Potency;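 further: confirmatory qHTS run detecting inhibitors and substrates of CYP3A4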
Beta-galactosidase = Beta-galactosidase (Escherichia coli, UniProt Q8VNN2); assay: PubChem AID 485352; assay type: functional
[1] = target: T1, Type-1 angiotensin II receptor (Homo sapiens, UniProt P30556); assay: AT1 receptor antagonists, dose response, selectivity assay for APJ receptor antagonist project, cell-based, uHTS hits (AID 463214); assay type: functional;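 further: antagonist potency against angiotensin II stimulated AT1 response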
T1 sequence (P30556 whole entry): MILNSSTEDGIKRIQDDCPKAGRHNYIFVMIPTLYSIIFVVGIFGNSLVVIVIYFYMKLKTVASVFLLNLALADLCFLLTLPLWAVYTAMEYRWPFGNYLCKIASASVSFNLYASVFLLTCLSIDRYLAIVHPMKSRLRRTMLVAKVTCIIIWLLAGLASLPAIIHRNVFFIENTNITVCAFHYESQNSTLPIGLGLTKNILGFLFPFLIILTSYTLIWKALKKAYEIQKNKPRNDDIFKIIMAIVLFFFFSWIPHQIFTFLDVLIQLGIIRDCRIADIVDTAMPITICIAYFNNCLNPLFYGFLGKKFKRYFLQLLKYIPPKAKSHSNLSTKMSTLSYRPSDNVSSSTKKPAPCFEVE

[2] = growth suppression of PTEN-null colon cells, dose response, cell-based, HCT116 PTEN knockout (AID 1047); assay type: functional;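 further: HCT116 colon tumor cells with PTEN knocked out; cells exposed to compound for 60 hours before readout; potency for loss of cell viability measured by luminescence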
[3] = growth suppression of beta-catenin-knockout colon cells, dose response, cell-based, HCT116, human colon tumor (AID 1045); assay type: functional;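 further: HCT116 colon tumor cells with beta catenin knocked out; cells exposed to compound for 60 hours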
Caspase-6 = target: T2, Caspase-6 (Homo sapiens, UniProt P55212); assay: human caspase-6 inhibitors, dose response, biochemical, VEID-R110 fluorescence, cherry-pick (AID 720632)
T2 sequence (P55212 whole entry): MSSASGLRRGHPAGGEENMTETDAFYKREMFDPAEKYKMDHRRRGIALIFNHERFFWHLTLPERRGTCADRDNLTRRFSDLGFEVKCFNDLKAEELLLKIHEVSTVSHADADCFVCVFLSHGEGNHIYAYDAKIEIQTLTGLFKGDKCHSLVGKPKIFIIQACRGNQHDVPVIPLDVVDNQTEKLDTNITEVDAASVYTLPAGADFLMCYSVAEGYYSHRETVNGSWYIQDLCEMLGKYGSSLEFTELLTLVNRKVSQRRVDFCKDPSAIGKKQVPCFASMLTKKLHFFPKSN

[4] = target: T3, High affinity choline transporter 1 (Homo sapiens, UniProt Q9GZV3); assay: CHT inhibitors, dose response, cell-based, 5-point CRC, membrane potential dye (AID 504840); assay type: functional
T3 sequence (Q9GZV3 whole entry): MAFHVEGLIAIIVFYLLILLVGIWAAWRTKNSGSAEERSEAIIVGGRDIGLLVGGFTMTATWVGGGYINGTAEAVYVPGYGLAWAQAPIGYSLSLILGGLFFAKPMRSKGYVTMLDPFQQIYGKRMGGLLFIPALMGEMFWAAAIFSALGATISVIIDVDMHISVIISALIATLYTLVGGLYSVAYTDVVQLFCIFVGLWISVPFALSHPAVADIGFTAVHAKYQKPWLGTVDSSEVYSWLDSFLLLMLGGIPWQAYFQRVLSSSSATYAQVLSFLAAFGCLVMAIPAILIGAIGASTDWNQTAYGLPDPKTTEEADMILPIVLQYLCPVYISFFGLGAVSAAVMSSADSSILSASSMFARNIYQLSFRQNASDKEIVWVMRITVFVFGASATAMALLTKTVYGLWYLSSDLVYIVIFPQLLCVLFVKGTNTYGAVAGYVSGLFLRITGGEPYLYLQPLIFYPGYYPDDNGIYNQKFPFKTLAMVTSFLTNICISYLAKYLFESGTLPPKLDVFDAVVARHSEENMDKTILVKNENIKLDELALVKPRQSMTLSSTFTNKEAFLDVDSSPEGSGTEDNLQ

[5] = target: T4, Polyadenylate-binding protein 1 (Homo sapiens, UniProt P11940); assay: PABP1 MLLE–PAM2 interaction inhibitors, dose response, miRNA deadenylation inhibitor project, biochemical, fluorescence polarization, Cy5-PAM2 peptide, secondary (AID 602260); assay type: functional; details: read-out: IC50_Mean
[6] = target: T4, Polyadenylate-binding protein 1; assay: PABP1 MLLE–PAM2 binding inhibitor potency, dose response, biochemical, fluorescence polarization, FITC-PAM2 peptide (AID 602259); assay type: functional; details: read-out: IC50_Mean
[7] = inhibitors of intracellular T. cruzi replication, confirmation, NIH3T3 host cells, beta-gal luminescence (AID 2044); assay type: functional, cell-based;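 further: intracellular parasites grown in NIH/3T3 mouse fibroblasts as host cells; luminescent beta-galactosidase reporter signal from transgenic T. cruzi replicating inside host cells; inhibitors lower the luminescence signal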
[8] = cytotoxicity toward NIH3T3 fibroblasts, dose response, counter-screen, cell-based, ATP luminescence, mouse fibroblasts (AID 2010); assay type: functional;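 further: cells exposed to compound for about 90 hours before reading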
[9] = target: T5, Ubiquitin-conjugating enzyme E2 N (Homo sapiens, UniProt P61088); assay type: functional;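 further: Dose-response confirmation in a TR-FRET assay detecting UBC13-driven polyubiquitin chain formation, inhibition measured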
T5 sequence (P61088 whole entry): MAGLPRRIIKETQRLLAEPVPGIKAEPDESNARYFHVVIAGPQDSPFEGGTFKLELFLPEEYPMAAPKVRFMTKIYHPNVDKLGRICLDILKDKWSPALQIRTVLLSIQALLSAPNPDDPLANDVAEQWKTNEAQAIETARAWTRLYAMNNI

cells = assay type: functional
[10] = inhibitors of firefly luciferase expression or activity, dose response, H4 neuroglioma cells, luminescence (AID 1990); assay type: functional, cell-based
[11] = inhibitors of SNCA 5'UTR-driven reporter translation, confirmation, H4 neuroglioma cells, luminescence (AID 1988); assay type: functional, cell-based
Vero = assay: cells; assay type: functional; details: Chlorocebus sabaeus
[12] = LGR2 antagonists, dose response, cell-based, HEK293, CRE-luciferase reporter, cherry pick, set 2 (AID 743343); assay type: functional;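 further: transfected cells were stimulated with diluted bursicon conditioned medium after compound addition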
[13] = MC4R antagonists, dose response, counter-screen for LGR2 antagonist project, cell-based, plate reader, cherry pick (AID 743444); assay type: functional;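 further: transfected HEK 293 cells stimulated with alpha-MSH peptide; potency of inhibitors of the alpha-MSH evoked signal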
[14] = target: T6, Rac GTPase-activating protein 1 (Homo sapiens, UniProt Q9H0H5); assay: MgcRacGAP GTPase-activating activity inhibitors, confirmation, biochemical, ADP Hunter fluorescence, primary and confirmatory (AID 624330); assay type: functional
T6 sequence (Q9H0H5 whole entry): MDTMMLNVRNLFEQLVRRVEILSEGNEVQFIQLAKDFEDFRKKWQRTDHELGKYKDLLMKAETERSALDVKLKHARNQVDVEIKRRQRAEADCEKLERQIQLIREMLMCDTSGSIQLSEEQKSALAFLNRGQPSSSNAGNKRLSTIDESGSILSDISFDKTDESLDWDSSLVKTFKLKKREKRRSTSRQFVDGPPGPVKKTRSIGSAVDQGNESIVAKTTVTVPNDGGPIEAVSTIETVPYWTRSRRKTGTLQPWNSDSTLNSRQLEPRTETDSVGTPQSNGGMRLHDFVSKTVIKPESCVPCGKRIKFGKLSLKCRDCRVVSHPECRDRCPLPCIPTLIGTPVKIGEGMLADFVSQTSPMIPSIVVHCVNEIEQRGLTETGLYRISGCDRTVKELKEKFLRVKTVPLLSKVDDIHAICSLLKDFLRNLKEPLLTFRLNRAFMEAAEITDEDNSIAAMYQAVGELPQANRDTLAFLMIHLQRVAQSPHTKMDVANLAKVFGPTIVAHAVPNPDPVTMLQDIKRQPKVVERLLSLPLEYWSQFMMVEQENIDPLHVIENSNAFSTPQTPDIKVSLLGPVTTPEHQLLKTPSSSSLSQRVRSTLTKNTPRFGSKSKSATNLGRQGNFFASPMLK

[15] = P. falciparum 3D7-ScDHODH growth inhibitors, dose response, SYBR Green, dry powder samples (AID 1159570); assay type: functional, cell-based;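 further: parasite growth measured after 72 hours of compound exposure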
[16] = P. falciparum Dd2 growth inhibitors, dose response, SYBR Green, cherry-picked samples (AID 1159567); assay type: functional, cell-based
[17] = P. falciparum Dd2 growth inhibitors, dose response, SYBR Green, dry powder samples (AID 1159566); assay type: functional, cell-based;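 further: potency for growth inhibition with lower SYBR green DNA signal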
[18] = P. falciparum ATP4 D1247Y mutant growth inhibitors, dose response, NITD609-resistant line, SYBR Green, dry powder (AID 1159571); assay type: functional, cell-based;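 further: parasites synchronized at ring stage by sorbitol before testing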

T4 sequence (P11940 whole entry): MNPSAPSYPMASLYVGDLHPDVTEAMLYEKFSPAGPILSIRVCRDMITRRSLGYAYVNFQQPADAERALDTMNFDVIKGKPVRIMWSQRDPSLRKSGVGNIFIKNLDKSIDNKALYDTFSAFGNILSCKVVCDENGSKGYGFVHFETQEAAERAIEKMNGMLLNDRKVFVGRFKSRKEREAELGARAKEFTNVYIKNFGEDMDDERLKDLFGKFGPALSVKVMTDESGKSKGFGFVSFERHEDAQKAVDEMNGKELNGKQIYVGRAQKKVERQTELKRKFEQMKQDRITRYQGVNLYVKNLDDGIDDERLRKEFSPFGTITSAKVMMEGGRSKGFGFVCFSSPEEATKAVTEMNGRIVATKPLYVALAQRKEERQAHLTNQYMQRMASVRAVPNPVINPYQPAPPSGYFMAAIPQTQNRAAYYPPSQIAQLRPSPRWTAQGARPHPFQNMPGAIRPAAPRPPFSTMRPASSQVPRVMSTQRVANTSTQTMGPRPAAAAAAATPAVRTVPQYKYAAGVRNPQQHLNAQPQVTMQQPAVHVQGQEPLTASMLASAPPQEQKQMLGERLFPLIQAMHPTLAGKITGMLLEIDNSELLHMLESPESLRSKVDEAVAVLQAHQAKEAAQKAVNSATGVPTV
Sequence of Cytochrome P450 3A4 (P08684 whole entry): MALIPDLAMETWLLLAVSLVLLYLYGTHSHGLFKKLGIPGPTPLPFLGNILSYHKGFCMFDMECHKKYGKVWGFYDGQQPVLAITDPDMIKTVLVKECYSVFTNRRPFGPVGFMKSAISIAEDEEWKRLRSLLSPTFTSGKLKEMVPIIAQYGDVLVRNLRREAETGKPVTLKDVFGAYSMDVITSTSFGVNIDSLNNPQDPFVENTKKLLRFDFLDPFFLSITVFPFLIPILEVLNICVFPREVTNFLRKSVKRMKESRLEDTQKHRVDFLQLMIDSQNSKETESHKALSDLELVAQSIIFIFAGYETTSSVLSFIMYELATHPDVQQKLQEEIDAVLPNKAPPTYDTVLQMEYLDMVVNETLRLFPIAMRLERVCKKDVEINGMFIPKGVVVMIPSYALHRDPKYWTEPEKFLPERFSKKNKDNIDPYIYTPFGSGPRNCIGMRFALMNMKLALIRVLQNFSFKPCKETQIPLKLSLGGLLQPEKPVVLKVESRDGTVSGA
Sequence of Beta-galactosidase (Q8VNN2 whole entry): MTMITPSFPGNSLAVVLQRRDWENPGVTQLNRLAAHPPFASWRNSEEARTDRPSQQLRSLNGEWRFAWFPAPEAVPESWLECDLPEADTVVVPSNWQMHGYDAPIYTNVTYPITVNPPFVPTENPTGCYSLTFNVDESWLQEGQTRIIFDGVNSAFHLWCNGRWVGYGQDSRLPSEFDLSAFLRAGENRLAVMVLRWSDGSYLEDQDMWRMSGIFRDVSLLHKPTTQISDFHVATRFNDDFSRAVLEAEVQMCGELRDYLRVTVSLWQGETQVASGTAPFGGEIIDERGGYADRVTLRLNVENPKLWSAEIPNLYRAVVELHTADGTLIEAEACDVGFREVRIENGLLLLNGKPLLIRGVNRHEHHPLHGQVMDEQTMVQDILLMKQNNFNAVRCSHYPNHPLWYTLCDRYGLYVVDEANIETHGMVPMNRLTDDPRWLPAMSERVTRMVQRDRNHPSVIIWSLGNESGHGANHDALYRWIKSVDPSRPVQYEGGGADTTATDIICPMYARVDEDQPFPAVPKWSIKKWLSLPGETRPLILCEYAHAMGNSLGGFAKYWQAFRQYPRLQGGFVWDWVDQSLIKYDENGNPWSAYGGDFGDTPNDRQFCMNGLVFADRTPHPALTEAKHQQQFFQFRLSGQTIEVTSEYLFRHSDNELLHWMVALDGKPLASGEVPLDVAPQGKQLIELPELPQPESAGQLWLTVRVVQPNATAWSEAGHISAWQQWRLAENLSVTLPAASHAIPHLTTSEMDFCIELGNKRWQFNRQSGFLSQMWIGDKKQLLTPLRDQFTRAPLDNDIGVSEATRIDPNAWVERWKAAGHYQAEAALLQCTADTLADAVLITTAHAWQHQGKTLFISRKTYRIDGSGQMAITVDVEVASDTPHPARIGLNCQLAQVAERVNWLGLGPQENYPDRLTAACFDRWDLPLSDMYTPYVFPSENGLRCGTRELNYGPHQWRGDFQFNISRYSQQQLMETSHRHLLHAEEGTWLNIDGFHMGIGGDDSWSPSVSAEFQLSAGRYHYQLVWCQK

CC(C)CCN1CCc2nc(-c3ccccc3)c3c(c2C1)COC(C)C3 (centres undefined)
AC50 (Cytochrome P450 3A4): 3.16 µM (inconclusive)

FC(F)(F)c1cccc(Sc2nc(-c3ccccc3)nnc2C(F)(F)F)c1
EC50 (Beta-galactosidase): > 40 µM (inactive) | IC50 [1]: 21.4 µM (not active)

SC1=NCCc2ccccc2C1c1ccccc1Cl (centres undefined)
EC50 (Beta-galactosidase): > 40 µM (inactive) | IC50 [1]: 13.8 µM (active)

Cc1ccc(CSc2nc3ccncc3n2CC(=O)Nc2cc(C)cc(C)c2)cc1
EC50 [2]: 26.3 µM (active) | EC50 [3]: 30.7 µM (active)

O=C(Nc1cccc(Cl)c1)c1cccc(N2C(=O)C3CC=CCC3C2=O)c1 (centres undefined)
AC50 (Caspase-6): 9.42 µM (active)

Cc1ccnc(NS(=O)(=O)c2ccc(NC(=O)c3ccc(Cl)cc3[N+](=O)[O-])cc2)n1
IC50 [4]: 13.2 µM (active)

FC(F)(F)c1ccc(CN2C[C@@H]3C(c4ccccc4)C4(c5ccccc5)CC3(C4)[C@H]2c2ccccc2)cc1 (some centres undefined)
AC50 (Cytochrome P450 3A4): 15.8 µM (inconclusive)

CC(=O)Nc1ccc(NC(=O)CCC(=O)OCC(=O)c2ccc(C)c([N+](=O)[O-])c2)cc1
EC50 (Beta-galactosidase): > 40 µM (inactive) | IC50 [1]: > 40 µM (not active)

O=C(NC(=S)NC(CO)Cc1ccccc1)c1ccc(F)cc1 (centres undefined)
IC50 [5]: > 66 µM (inactive) | IC50 [6]: > 66 µM (inactive)

O=S(=O)(c1ccc2[nH]c(-c3ccccc3)nc2c1)N1CCN(c2ccc(Cl)cc2)CC1
EC50 [2]: 4.83 µM (active) | EC50 [3]: 5.15 µM (active)

O=C(NC(N=C(S)Nc1c(Cl)cccc1Cl)C(Cl)(Cl)Cl)c1cccc([N+](=O)[O-])c1 (centres undefined)
EC50 [7]: 2.22 µM (active) | EC50 [2]: 12.4 µM (active) | EC50 [8]: > 60 µM (not active) | EC50 [3]: 16.2 µM (active)

CC(OC(=O)c1oc2ccccc2c1CSC1CCCCC1)C(=O)NC(N)=O (centres undefined)
EC50 [2]: 24.9 µM (active) | EC50 [3]: 55.1 µM (active)

O=C(COc1ccc(Cl)cc1)NNC(=O)c1ccccn1
IC50 [9]: > 20 µM (inactive) | IC50 (cells): 6.74 µM (active)

Cc1ccc(C(=O)CNc2ccccc2C)cc1
EC50 (Beta-galactosidase): > 40 µM (inactive) | IC50 [1]: 8.2 µM (active)

O=C1NC(c2ccccc2)=C(c2ccc3ccccc3n2)C(c2ccncc2)N1 (centres undefined)
IC50 [4]: 4.57 µM (active)

Fc1ccc(CN2CC[C@H]3C=CCc4cccc(c43)C2)cc1
IC50 [5]: > 66 µM (inactive) | IC50 [6]: > 66 µM (inactive)

NC(=O)c1oc2ccccc2c1NC(=O)c1ccc([N+](=O)[O-])o1
EC50 [10]: 8.49 µM (active) | EC50 [11]: 4.08 µM (active) | CC50 (Vero): 5.74 µM (active)

O=C1/C(=C/c2cccc(Cl)c2)SC(=S)N1CCC(=O)N1CCCCC1CCO (centres undefined)
CC50 (Vero): 19.9 µM (active)

Cc1ccccc1/C=C/C(=O)NCC(=O)N1CCC(N(C)C2CCCCC2C)CC1 (centres undefined)
IC50 [4]: 14.5 µM (active)

CC(C)=CCCC1(C)C=Cc2c(O)c3c(c(CC=C(C)C)c2O1)OC12C(=CC4CC1C(C)(C)OC2(C/C=C(/C)C(=O)O)C4=O)C3=O (centres undefined)
AC50 (Cytochrome P450 3A4): 39.8 µM (inconclusive)

O=C(O)c1cccc(S(=O)(=O)Nc2ccc3c(c2)OCO3)c1
IC50 [5]: > 66 µM (inactive) | IC50 [6]: > 66 µM (inactive)

CNC(=O)Oc1cccc(-c2cn3cc(Cl)ccc3n2)c1
AC50 [12]: 15.8 µM (active) | AC50 [13]: 18.6 µM (active)

CC1CCCCC1NC(=O)c1ccc(S(=O)(=O)NCC2CCCO2)cc1 (centres undefined)
IC50 [4]: 12.3 µM (active)

CSc1ccc(C2C(C#N)=C(N)Oc3cc4c(cc32)OCO4)cc1 (centres undefined)
EC50 [2]: 6.59 µM (active) | EC50 [3]: 6.05 µM (active)

Fc1cc(F)c(F)c(SCCc2ccncc2)c1F
EC50 [2]: 29.7 µM (active) | EC50 [3]: 30.7 µM (active)

O=C(Cn1cc(C(=O)c2cccs2)c2ccccc21)NC1CCCCC1
IC50 [9]: > 20 µM (inactive)

CC(=O)Nc1ccc(C(=O)CSc2ncn(-c3ccccc3)n2)cc1
IC50 [5]: > 66 µM (inactive) | IC50 [6]: > 66 µM (inactive)

CC(=O)OC1CCC2C3CCc4cc(O)ccc4C3CCC12C (centres undefined)
AC50 (Cytochrome P450 3A4): 39.8 µM (inconclusive)

CN(C)CCCN(C(=O)C1=COCCO1)c1nc2ccc(Br)cc2s1
CC50 (Vero): > 25 µM (active)

Sc1ncc2cnccn12
IC50 [5]: > 66 µM (inactive) | IC50 [6]: > 66 µM (inactive) | IC50 [14]: 52.3 µM (active)

CCCCNc1nc(NCc2ccccc2)nc2ccccc12
AC50 (Caspase-6): 15.6 µM (active)

C/C=C/c1ccc2c(c1)[C@H]1[C@H](CCN1S(=O)(=O)c1ccccc1C)[C@@H](CO)N2
AC50 [15]: 1.46 µM (active) | AC50 [16]: 1.83 µM (active) | AC50 [17]: 1.18 µM (active) | AC50 [18]: 0.942 µM (active)

CCCCCC[C@H]1C(=O)O[C@H](C)[C@H](NC(=O)c2cccc(NC=O)c2O)C(=O)O[C@@H](C)[C@@H]1OC(=O)CC(C)C [ANTIMYCIN A]
AC50 (Cytochrome P450 3A4): 6.31 µM (inconclusive)

NC(=O)c1ccccc1 [BENZAMIDE]
AC50 (Cytochrome P450 3A4): 0.005 µM (inconclusive)
